Test results published in patent publication US8535650B2, “Stabilized reverse micelle compositions and uses thereof” (Soligenix, Inc., priority 2001, dated 2013).
Each block holds one compound with its values, some of them ahead of it.

What was measured:
in vivo [1] = conditions: Sprague-Dawley, rat, sc, 0.4 mg/kg
Description: Sprague-Dawley rats (approximately weighing 120 grams each) were catheterized surgically with jugular and duodenal catheters. Each group of rats, 3-5 animals per group, were given 0.4-2.4 mg/kg of LHRH either as free in solution or incorporated in micelles. As further control, several groups of animals were given a solution of free LHRH subcutaneously at a dose of 0.4 mg/kg of body weight. Blood samples were collected at 0, 20, 40, 60, 90, 120, and 240 minutes following administration of LHRH or controls. The time 0 blood collection was obtained approximately 15 minutes before administration of LHRH formulations. Plasma samples were analyzed by a competitive ELISA assay as follows. Plastic 96 well plates were coated with anti-rabbit immunoglobulins followed by addition of rabbit anti-LHRH and biotinylated-LHRH with sample dilutions. Binding of biotinylated LHRH was assayed by development with BRP-avidin and color development with TMB (tetra-methyl-benzidine). Pharmacokinetic parameters were calculated from the data using WinNonLin software (Pharsight).

in vivo [2] = conditions: both, beagle, dog, sc, 0.4 mg/kg
Description: Beagle dogs (3 female and 3 male weighing 8-10 kg each) were catheterized surgically with duodenal catheters. For each treatment, the dogs were given 0.4-2.4 mg/kg of leuprolide either in solution or incorporated in micelles. The treatments were administered via the duodenal catheter. For the positive control, the dogs were given a solution of free leuprolide by subcutaneous injection. Blood samples were collected from cephalic catheters or the jugular vein at 0, 15, 30, 45, 60, 90, 120, 240, 360, 480, and 1440 minutes following administration of leuprolide or controls. […] The time 0 blood collection was obtained approximately 10 minutes before administration of leuprolide formulations. The amount of leuprolide released into dog serum was determined by using a competitive enzyme-linked immunosorbent assay (ELISA) from Peninsula Laboratories, Inc. which utilizes goat anti-rabbit IgG for solid phase (microwell) immobilization. The test serum was allowed to react simultaneously with the coated antibody, rabbit anti-leuprolide and biotinylated leuprolide. After two-hour incubation at room temperature, unbound biotinylated peptide was removed by washing, and streptavidin-conjugated horseradish peroxidase (SA-HRP) was added and allowed to bind the immobilized rabbit anti-leuprolide/biotinylated leuprolide complex. After washing away excess SA-HRP, 3,3′5,5′-Tetramethylbenzidine dihydrochloride (B) was added and incubated for 15 minutes, resulting in the development of a blue color. The addition of stop solution stops the reaction and converts the color to yellow. Leuprolide in the samples was quantified by non-linear regression analysis of the standard curve and sample optical density values. Pharmacokinetic parameters are calculated using a pharmacokinetic software with a noncompartmental model.

in vivo [3] = conditions: Sprague-Dawley, rat
Description: Sprague-Dawley rats (approximately weighing 120 grams each) were catheterized surgically with jugular and duodenal catheters. Each group of rats, 4-5 animals per group, were given 0.4-3.6 mg/kg of leuprolide either as free in solution or incorporated in micelles. As further control, several groups of animals were given a solution of free leuprolide subcutaneously. Blood samples were collected at 0, 20, 40, 60, 90, 120, and 240 minutes following administration of leuprolide or controls. The time 0 blood collection was obtained approximately 15 minutes before administration of leuprolide formulations. The amount of leuprolide released into rat serum or leuprolide in formulation was determined by using competitive enzyme-linked immunosorbent assay (ELISA) (Peninsula Laboratories, Inc). The assay system utilizes goat anti-rabbit IgG for solid phase (microwells) immobilization. The test serum or formulation sample was allowed to react simultaneously with the coated antibody, rabbit anti-leuprolide and biotinylated leuprolide. The biotinylated leuprolide competes for the antibody binding sites with standard or the unknown sample leuprolide. After a two-hour (or overnight) incubation at room temperature, unbound biotinylated peptide was removed by washing, and streptavidin-conjugated horseradish peroxidase (SA-HRP) was added and allowed to bind the immobilized rabbit anti-leuprolide/biotinylated leuprolide complex. After washing away excess SA-HRP, 3,3′,5,5′-Tetramethylbenzidine (TMB) was added and incubated for 15 minutes, resulting in the development of a blue color. The addition of Stop Solution stops the reaction and converts the color to yellow. The intensity of the yellow color depends on the quantity of biotinylated leuprolide bound to the immobilized antibody: When more sample leuprolide competes for the limited antibody, less biotinylated leuprolide/SA-HRP can be immobilized, and less color is produced by the substrate.

[4] = Bioavailability of hGH following intraduodenal administration in rats (plasma hGH by ELISA); format: in vivo, Sprague-Dawley rats; conditions: 600 micrograms hGH, FIG. 1
Source text: Each group of rats, 3-5 animals per group, received 600 micrograms of human growth hormone in Acconon CC-12 reverse micelle formulation or control formulations consisting of aqueous growth hormone or Acconon CC-12 water reverse micelle. Blood samples were obtained from the jugular catheter at the indicated times after administration. Plasma samples were obtained from the collected blood specimens and analyzed for the presence of hGH by an enzyme-linked immunosorbent assay (ELISA) (Alexon-Trend, BioCheck). The assay system utilizes polyclonal sheep anti-hGH for solid phase (microwells) immobilization, and mouse monoclonal anti-hGH in the antibody-enzyme (horseradish peroxidase) conjugate solution. […] After a 45-minute incubation at room temperature, the sample well was washed to remove unbound enzyme labeled antibody. […] The intensity of the yellow color is directly proportional to the concentration of hGH in the sample.

- AUC(0-inf) (in vivo [1]): 31.5 ng·h/mL
- Cmax (in vivo [1]): 79 ± 51.2 ng/mL
- bioavailability (in vivo [1]): 100%
Compound: CC(C)C[C@H](NC(=O)CNC(=O)[C@H](Cc1ccc(O)cc1)NC(=O)[C@H](CO)NC(=O)[C@H](Cc1c[nH]c2ccccc12)NC(=O)[C@H](Cc1cnc[nH]1)NC(=O)[C@@H]1CCC(=O)N1)C(=O)N[C@@H](CCCNC(=N)N)C(=O)N1CCC[C@H]1C(=O)NCC(N)=O [LHRH solution]

- AUC(0-inf) (in vivo [2]): 905 ng·h/mL
- Cmax (in vivo [2]): 412 ± 163 ng/mL
- bioavailability (in vivo [2]): 100%
- bioavailability (in vivo [3]): ~0.2%
- AUC(0-inf) (in vivo [3]; 2.4 mg/kg): 5.43 ng·h/mL
- Cmax (in vivo [3]; 2.4 mg/kg): 6.3 ± 5.3 ng/mL
- bioavailability (in vivo [3]; 2.4 mg/kg): 0.23 ± 0.12%
- AUC(0-inf) (in vivo [3]; sc, 0.4 mg/kg): 397 ng·h/mL
- Cmax (in vivo [3]; sc, 0.4 mg/kg): 453 ± 94 ng/mL
- bioavailability (in vivo [3]; sc, 0.4 mg/kg): 100%
Compound: CCNC(=O)[C@@H]1CCCN1C(=O)[C@H](CCCNC(=N)N)NC(=O)[C@H](CC(C)C)NC(=O)[C@@H](CC(C)C)NC(=O)[C@H](Cc1ccc(O)cc1)NC(=O)[C@H](CO)NC(=O)[C@H](Cc1c[nH]c2ccccc12)NC(=O)[C@H](Cc1c[nH]cn1)NC(=O)[C@@H]1CCC(=O)N1 [Leuprolide solution, p-Glu-His-Trp-Ser-Tyr-D-Leu-Leu-Arg-Pro-NHC2H5]

Compound: aqueous growth hormone: purified human growth hormone dissolved in water, control formulation
- absorption of hGH [4]: little to no absorption
